Consider 20 compounds from patent US20230280220A1, “Benzimidazole Derivative Compounds and Uses Thereof” (Pfizer Inc., priority 2019, published 2023).

This experiment addresses ITK enzyme (ITK FL, N-Flag and C-His tagged) (Homo sapiens (Human), UniProt Q08881). As to the kind of experiment: ITK enzyme assay (IL-2-inducible T-cell kinase activity). It is filed as biochemical. The settings on record: geometric mean of count n. On the procedure: IL-2-Inducible T-Cell Kinase (ITK) Activity, IC50 (nM)
ITK activity was determined by measuring the effect of a test compound in an ITK enzyme assay.
1.0 M HEPES Buffer pH 7.5 solution was prepared as follows: 238.3 g HEPES free acid (Sigma) and 800 mL of water were combined, and the mixture was stirred until complete dissolution. The pH was adjusted to 7.5 via titration with 5N NaOH and the volume adjusted to 1000 mL. The solution was filtered and sterilized.
ITK assay buffer was prepared as follows: 50 mL of HPLC-grade water was treated with 2 mL of 1.0 M HEPES Buffer, 500 μL of 2% Gelatin (Sigma), 1.0 mL of aqueous MgCl2 solution (1.0 M), and 1.0 mL of aqueous glutathione solution (0.5 M), and the solution was mixed. The solution was brought to 99 mL in a graduated cylinder by addition of water and sterilized through a 0.2 μm filter. 0.1 mL of Brij-35™ Surfact-Amps™ Detergent Solution (10% w/v aqueous solution, ThermoFisher) and 1.0 mL of ATP (Teknova, 100 mM) were added and the solution was mixed.
The resulting solution was stored on ice. 30 Minutes prior to use, the enzyme solution was removed from ice and equilibrated to RT by incubation in a RT water bath.
Preparation of 4×ITK substrate solution was as follows: 50 mL of ITK assay buffer was treated with 100 μL of BTK peptide (China Peptide Company, 2 mM stock solution in DMSO). The tube was capped, mixed by gently inverting the tube, and then stored on ice. 30 Minutes prior to use, the substrate solution was removed from ice and equilibrated to RT by incubation in a RT water bath.
At the time of assay, 7.5 μL of the 1.33×ITK enzyme solution was added to plate wells containing 0.1 μL of varying concentrations of test compound in DMSO. The plate was incubated 30 min at RT. The plate wells were each treated with 2.5 uL of the 4×ITK substrate solution and the plate was sealed (TopSeal™, Perkin Elmer). The plate was spun at 1000 rpm for 30 sec and then incubated for 60 min at RT. The seal was removed, and each well was treated with 10 μL of Stop/Detect Buffer (20 mM HEPES pH 7.5, 0.01% gelatin, 1 nM LANCE PT66 (Perkin Elmer), 16.5 μg/ml Surelight APC (Perkin Elmer), 10 mM EDTA, 250 mM NaCl). The plate was again covered and was spun at 1000 rpm for 30 seconds. The plate was allowed to incubate overnight at RT and in a closed carrier to reduce dehydration. The seal was removed, and the fluorescence was read with a plate reader with an excitation wavelength of […] and an emission wavelength of 615 nm.

Chain of ITK enzyme (ITK FL, N-Flag and C-His tagged) (Q08881 whole entry): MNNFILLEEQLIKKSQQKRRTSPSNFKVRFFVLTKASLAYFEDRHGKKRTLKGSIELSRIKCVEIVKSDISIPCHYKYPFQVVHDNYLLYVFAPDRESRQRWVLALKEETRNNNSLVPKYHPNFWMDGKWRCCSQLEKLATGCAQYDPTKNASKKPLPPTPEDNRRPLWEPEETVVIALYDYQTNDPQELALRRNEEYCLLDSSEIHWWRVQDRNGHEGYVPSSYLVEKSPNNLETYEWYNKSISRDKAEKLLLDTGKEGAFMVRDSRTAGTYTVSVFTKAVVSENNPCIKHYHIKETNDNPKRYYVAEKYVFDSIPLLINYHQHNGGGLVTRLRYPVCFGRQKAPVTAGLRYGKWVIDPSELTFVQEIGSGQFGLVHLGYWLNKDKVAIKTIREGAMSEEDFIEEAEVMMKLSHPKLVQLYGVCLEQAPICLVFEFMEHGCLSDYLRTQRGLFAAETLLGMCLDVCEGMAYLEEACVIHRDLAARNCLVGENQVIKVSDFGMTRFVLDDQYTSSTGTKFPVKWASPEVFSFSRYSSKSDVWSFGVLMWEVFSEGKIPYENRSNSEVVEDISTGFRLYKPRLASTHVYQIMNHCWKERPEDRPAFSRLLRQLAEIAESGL

As to `COCc1cc(N(C)C(=O)[C@H](C)N2CCOCC2)cc2nc(-c3n[nH]c4c3C[C@@H]3C[C@]3(C)C4)[nH]c12` [Example 42, (S)—N-(7-(methoxymethyl)-2-((4aS,5aR)-5a-methyl-1,4,4a,5,5a,6-hexahydrocyclopropa[f]indazol-3-yl)-1H-benzo[d]imidazol-5-yl)-N-methyl-2-morpholinopropanamide], the IC50 – broadly, the concentration that gives 50% inhibition – is 38 nM. `Cc1cc2[nH]c(-c3n[nH]c4c3C[C@@H]3C[C@]3(C)C4)nc2cc1N(C)C(=O)CN1CCOCC1` [Example 34, N-Methyl-N-(6-methyl-2-((4aS,5aR)-5a-methyl-1,4,4a,5,5a,6-hexahydrocyclopropa[f]indazol-3-yl)-1H-benzo[d]imidazol-5-yl)-2-morpholinoacetamide] came in with an IC50 of 10 nM. Take `C[C@@H](C(=O)N(C)c1ccc2[nH]c(-c3n[nH]c4c3C[C@@H]3C(F)(F)[C@]3(C)C4)nc2c1)N1CCOCC1` [Example 13, (S)—N-(2-((4aS,5aR)-5,5-difluoro-5a-methyl-1,4,4a,5,5a,6-hexahydrocyclopropa[f]indazol-3-yl)-1H-benzo[d]imidazol-5-yl)-N-methyl-2-morpholinopropanamide]: the IC50 is 1 nM. `C[C@@H](C(=O)N(C)c1cc2nc(-c3n[nH]c4c3C[C@@H]3C[C@]3(C)C4)[nH]c2cc1C#N)N1CCOCC1` [Example 21, (S)—N-(6-cyano-2-((4aS,5aR)-5a-methyl-1,4,4a,5,5a,6-hexahydrocyclopropa[f]indazol-3-yl)-1H-benzo[d]imidazol-5-yl)-N-methyl-2-morpholinopropanamide]: the IC50 was found to be 9 nM. On to `C[C@@H](C(=O)N(C)c1cc(F)c2[nH]c(-c3n[nH]c4c3C[C@@H]3C[C@]3(C)C4)nc2c1)N1CCOCC1` [Example 15, (S)—N-(7-fluoro-2-((4aS,5aR)-5a-methyl-1,4,4a,5,5a,6-hexahydrocyclopropa[f]indazol-3-yl)-1H-benzo[d]imidazol-5-yl)-N-methyl-2-morpholinopropanamide], for which the concentration for half-maximal inhibition (IC50) was 4 nM. For `CN(C(=O)CC1CCOCC1)c1ccc2[nH]c(-c3n[nH]c4c3C[C@@H]3C[C@]3(C)C4)nc2c1` [Example 10, N-methyl-N-(2-((4aS,5aR)-5a-methyl-1,4,4a,5,5a,6-hexahydrocyclopropa[f]indazol-3-yl)-1H-benzo[d]imidazol-5-yl)-2-(tetrahydro-2H-pyran-4-yl)acetamide], the midpoint of inhibition, the IC50, lay at 7 nM. The result for `C[C@@H](C(=O)N(C)c1cc(C(F)(F)F)c2[nH]c(-c3n[nH]c4c3C[C@@H]3C[C@]3(C)C4)nc2c1)N1CCOCC1` [Example 41, (S)—N-methyl-N-(2-((4aS,5aR)-5a-methyl-1,4,4a,5,5a,6-hexahydrocyclopropa[f]indazol-3-yl)-7-(trifluoromethyl)-1H-benzo[d]imidazol-5-yl)-2-morpholinopropanamide] reads 34 nM; that for `C[C@@H](C(=O)N(C)c1cc(Cl)c2[nH]c(-c3n[nH]c4c3C[C@@H]3C[C@]3(C)C4)nc2c1)N1CCOCC1` [Example 43, (S)—N-(7-chloro-2-((4aS,5aR)-5a-methyl-1,4,4a,5,5a,6-hexahydrocyclopropa[f]indazol-3-yl)-1H-benzo[d]imidazol-5-yl)-N-methyl-2-morpholinopropanamide], 16 nM; that for `C[C@@H](C(=O)N(C)c1cc(C(F)F)c2[nH]c(-c3n[nH]c4c3C[C@@H]3C[C@]3(C)C4)nc2c1)N1CCOCC1` [Example 48, (S)—N-(7-(difluoromethyl)-2-((4aS,5aR)-5a-methyl-1,4,4a,5,5a,6-hexahydrocyclopropa[f]indazol-3-yl)-1H-benzo[d]imidazol-5-yl)-N-methyl-2-morpholinopropanamide], 17 nM.

Compound `C[C@@H](C(=O)N(C)c1cc2nc(-c3n[nH]c4c3C[C@@H]3C[C@]3(C)C4)[nH]c2c(F)c1F)N1CCOCC1` [Example 24, (S)—N-(6,7-difluoro-2-((4aS,5aR)-5a-methyl-1,4,4a,5,5a,6-hexahydrocyclopropa[f]indazol-3-yl)-1H-benzo[d]imidazol-5-yl)-N-methyl-2-morpholinopropanamide] showed an IC50 of 8 nM.

`COCCOc1cc2[nH]c(-c3n[nH]c4c3C[C@@H]3C[C@]3(C)C4)nc2cc1N(C)C(=O)[C@H](C)N1CCOCC1` [Example 49, (S)—N-(6-(2-methoxyethoxy)-2-((4aS,5aR)-5a-methyl-1,4,4a,5,5a,6-hexahydrocyclopropa[f]indazol-3-yl)-1H-benzo[d]imidazol-5-yl)-N-methyl-2-morpholinopropanamide] yielded an IC50 of 12 nM. The result for `Cc1c(F)c(N(C)C(=O)[C@H](C)N2CCOCC2)cc2nc(-c3n[nH]c4c3C[C@@H]3C[C@]3(C)C4)[nH]c12` [Example 47, (S)—N-(6-fluoro-7-methyl-2-((4aS,5aR)-5a-methyl-1,4,4a,5,5a,6-hexahydrocyclopropa[f]indazol-3-yl)-1H-benzo[d]imidazol-5-yl)-N-methyl-2-morpholinopropanamide] reads 29 nM; that for `Cc1cc2[nH]c(-c3n[nH]c4c3C[C@@H]3C[C@]3(C)C4)nc2cc1NC(=O)[C@H](C)N1CCOCC1` [Example 52, (S)—N-(6-methyl-2-((4aS,5aR)-5a-methyl-1,4,4a,5,5a,6-hexahydrocyclopropa[f]indazol-3-yl)-1H-benzo[d]imidazol-5-yl)-2-morpholinopropanamide], 121 nM. For the compound `Cc1cc(N(C)C(=O)[C@H](C)N2CCOCC2)cc2nc(-c3n[nH]c4c3C[C@@H]3C[C@]3(C)C4)[nH]c12` [Example 50, (S)—N-methyl-N-(7-methyl-2-((4aS,5aR)-5a-methyl-1,4,4a,5,5a,6-hexahydrocyclopropa[f]indazol-3-yl)-1H-benzo[d]imidazol-5-yl)-2-morpholinopropanamide], 16 nM corresponded to half-maximal inhibition (IC50). Regarding `C[C@@H](C(=O)N(C)c1cc(F)c2[nH]c(-c3n[nH]c4c3C[C@@H]3C[C@]3(C)C4)nc2c1)C1CCOCC1` [Example 12, (R)—N-(7-fluoro-2-((4aS,5aR)-5a-methyl-1,4,4a,5,5a,6-hexahydrocyclopropa[f]indazol-3-yl)-1H-benzo[d]imidazol-5-yl)-N-methyl-2-(tetrahydro-2H-pyran-4-yl)propanamide], the IC50 worked out at 3 nM. `Cc1cc2[nH]c(-c3n[nH]c4c3C[C@@H]3C[C@]3(C)C4)nc2cc1N(C)C(=O)CC1CCOCC1` [Example 35, N-Methyl-N-(6-methyl-2-((4aS,5aR)-5a-methyl-1,4,4a,5,5a,6-hexahydrocyclopropa[f]indazol-3-yl)-1H-benzo[d]imidazol-5-yl)-2-(tetrahydro-2H-pyran-4-yl)acetamide] came in with an IC50 of 6 nM.

`COc1cc2[nH]c(-c3n[nH]c4c3C[C@@H]3C[C@]3(C)C4)nc2cc1N(C)C(=O)[C@H](C)N1CCOCC1` [Example 19, (S)—N-(6-methoxy-2-((4aS,5aR)-5a-methyl-1,4,4a,5,5a,6-hexahydrocyclopropa[f]indazol-3-yl)-1H-benzo[d]imidazol-5-yl)-N-methyl-2-morpholinopropanamide] came in with an IC50 of 9 nM.

In turn, `CCN(C(=O)[C@H](C)N1CCOCC1)c1cc2nc(-c3n[nH]c4c3C[C@@H]3C[C@]3(C)C4)[nH]c2c(F)c1F` [Example 25, (S)—N-(6,7-difluoro-2-((4aS,5aR)-5a-methyl-1,4,4a,5,5a,6-hexahydrocyclopropa[f]indazol-3-yl)-1H-benzo[d]imidazol-5-yl)-N-ethyl-2-morpholinopropanamide] yielded an IC50 of 13 nM.

As for `CCN(C(=O)[C@H](C)N1CCOCC1)c1cc(F)c2[nH]c(-c3n[nH]c4c3C[C@@H]3C[C@]3(C)C4)nc2c1` [Example 16, (S)—N-ethyl-N-(7-fluoro-2-((4aS,5aR)-5a-methyl-1,4,4a,5,5a,6-hexahydrocyclopropa[f]indazol-3-yl)-1H-benzo[d]imidazol-5-yl)-2-morpholinopropanamide], the IC50 was found to be 5 nM. In turn, `C[C@@H](C(=O)N(C)c1cc(Br)c2[nH]c(-c3n[nH]c4c3C[C@@H]3C[C@]3(C)C4)nc2c1)N1CCOCC1` [Example 37, (S)—N-(7-bromo-2-((4aS,5aR)-5a-methyl-1,4,4a,5,5a,6-hexahydrocyclopropa[f]indazol-3-yl)-1H-benzo[d]imidazol-5-yl)-N-methyl-2-morpholinopropanamide] displayed an IC50 of 9 nM.
